Assay results from BigSolDB 2.1.

O=C1c2ccccc2-c2ccc(Br)cc21
solubility (mole fraction)
Conditions	in 1,4-dioxane	in acetonitrile	in ethanol	in ethyl acetate	in isopropanol	in methanol	in methyl acetate	in n-butanol	in n-butyl acetate	in n-propanol
278.15 K	–	0.000793	0.000435	0.00515	0.000365	0.000214	0.00408	0.000924	0.00637	0.0006
283.15 K	0.0136	0.001	0.000546	0.00603	0.000477	0.000265	0.00517	0.00119	0.00757	0.000747
288.15 K	0.0167	0.00122	0.000674	0.00732	0.000604	0.000329	0.00608	0.00148	0.00911	0.000915
293.15 K	0.0199	0.00152	0.000831	0.00865	0.000765	0.00042	0.00738	0.0018	0.0113	0.00116
298.15 K	0.0241	0.00188	0.00101	0.0102	0.000969	0.000529	0.00882	0.00221	0.0136	0.00143
303.15 K	0.0284	0.00227	0.00123	0.012	0.0012	0.00066	0.0105	0.00268	0.016	0.00173
308.15 K	0.0334	0.00273	0.00146	0.0136	0.00148	0.000828	0.0123	0.00328	0.019	0.00208
313.15 K	0.0391	0.00327	0.00174	0.016	0.00183	0.00102	0.0144	0.00393	0.0221	0.0025
318.15 K	0.0455	0.00389	0.00205	0.0183	0.00224	0.00127	0.0168	0.00466	0.0259	0.00297
323.15 K	0.0527	0.0046	0.00239	0.0212	0.0027	0.00157	0.0193	0.00553	0.03	0.0035
